US8076487B2, “Pyridone derivative and herbicide” (Kumiai Chemical Industry Co., Ltd., priority 2006, dated 2011)

Key:
Format in all cases: in vivo
[1] = system: velvetleaf (Abutilon theophrasti medicus); test: Test Example 2: herbicidal effect by soil application to upland field; settings: soil surface spray, upland field soil, 1,000 g active ingredient per hectare, 21st day after application
In short: (§1)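 Scoring on a standard scale took place 21 days after application, with plants kept in a greenhouse. Active ingredient (1,000 g/ha, as diluted wettable powder, 1,000 L/ha) was sprayed evenly onto soil directly after sowing and covering seeds.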

[2] = system: slender amaranth (Amaranthus viridis L.); test: as above; settings: soil surface spray, upland field soil, 1,000 g active ingredient per hectare, 21st day after application
In short: as §1

[3] = system: green foxtail (Setaria viridis (L.) P. Beauv.); test: as above; settings: soil surface spray, upland field soil, 1,000 g active ingredient per hectare, 21st day after application
In short: as §1

[4] = system: barnyardgrass (Echinochloa crus-galli (L.) P. Beauv. var. crus-galli); test: as above; settings: soil surface spray, upland field soil, 1,000 g active ingredient per hectare, 21st day after application
In short: as §1

[5] = system: velvetleaf (Abutilon theophrasti medicus); test: Test Example 3: herbicidal effect by application to upland field (foliage treatment); settings: foliage treatment, plants grown two weeks, 1,000 g active ingredient per hectare, 14th day after application
In short: (§2)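 A single foliar application of a water-diluted wettable powder, at 1,000 g of active ingredient per hectare, was made to plants raised for two weeks from seed in field soil. Herbicidal activity was judged visually after a further 14 days in the greenhouse.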

[6] = system: slender amaranth (Amaranthus viridis L.); test: as above; settings: foliage treatment, plants grown two weeks, 1,000 g active ingredient per hectare, 14th day after application
In short: as §2

[7] = system: green foxtail (Setaria viridis (L.) P. Beauv.); test: as above; settings: foliage treatment, plants grown two weeks, 1,000 g active ingredient per hectare, 14th day after application
In short: as §2

[8] = system: barnyardgrass (Echinochloa crus-galli (L.) P. Beauv. var. crus-galli); test: as above; settings: foliage treatment, plants grown two weeks, 1,000 g active ingredient per hectare, 14th day after application
In short: as §2

[9] = system: early watergrass (Echinochloa oryzicola Vasing); test: Test Example 1: herbicidal effect by soil application to paddy field; settings: paddy field soil application; active ingredient 1,000 g per 1 hectare; wettable powder added dropwise to water surface the day after sowing; examined on the 21st day after application
In short: (§3)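 Under greenhouse conditions, seeds sown on puddled paddy soil in 100 cm2 pots under 3 cm of standing water received the test compound; injury was assessed with a standard scoring scheme three weeks (day 21) after treatment.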

[10] = system: Japanese bulrush (Scirpus juncoides Roxb.); test: as above; settings: paddy field soil application; active ingredient 1,000 g per 1 hectare; wettable powder added dropwise to water surface the day after sowing; examined on the 21st day after application
In short: as §3

[11] = system: heartshape false pickerelweed (Monochoria vaginalis (Burm.f.) C.Presl); test: as above; settings: paddy field soil application; active ingredient 1,000 g per 1 hectare; wettable powder added dropwise to water surface the day after sowing; examined on the 21st day after application
In short: as §3

Row | SMILES | herbicidal effect (index), Velvetleaf [1] | herbicidal effect (index), Slender Amaranth [2] | herbicidal effect (index), Green Foxtail [3] | herbicidal effect (index), Barnyardgrass [4] | herbicidal effect (index), Velvetleaf [5] | herbicidal effect (index), Slender Amaranth [6] | herbicidal effect (index), Green Foxtail [7] | herbicidal effect (index), Barnyardgrass [8] | herbicidal effect, Echinochloa oryzicola Vasing [9] | herbicidal effect, Scirpus juncoides Roxb. [10] | herbicidal effect, Monochoria vaginalis (Burm. f.) C. Presl [11]
1 | O=C1CCCC(O)=C1C(=O)c1ccc(C(F)(F)F)n(CSC2CC2)c1=O [I-52] | 5 (90% or more of herbicidal effect and crop phytotoxicity) | 5 (90% or more of herbicidal effect and crop phytotoxicity) | 5 (90% or more of herbicidal effect and crop phytotoxicity) | 5 (90% or more of herbicidal effect and crop phytotoxicity) | 5 (90% or more of herbicidal effect and crop phytotoxicity) | 5 (90% or more of herbicidal effect and crop phytotoxicity) | 5 (90% or more of herbicidal effect and crop phytotoxicity) | 5 (90% or more of herbicidal effect and crop phytotoxicity) | 5 (90% or more of herbicidal effect and crop phytotoxicity) | 5 (90% or more of herbicidal effect and crop phytotoxicity) | 5 (90% or more of herbicidal effect and crop phytotoxicity)
2 | O=C1CCCC(O)=C1C(=O)c1ccc(C(F)(F)F)n(CS(=O)(=O)C2CC2)c1=O [I-53] | 5 (90% or more of herbicidal effect and crop phytotoxicity) | 5 (90% or more of herbicidal effect and crop phytotoxicity) | 5 (90% or more of herbicidal effect and crop phytotoxicity) | 5 (90% or more of herbicidal effect and crop phytotoxicity) | 5 (90% or more of herbicidal effect and crop phytotoxicity) | 5 (90% or more of herbicidal effect and crop phytotoxicity) | 5 (90% or more of herbicidal effect and crop phytotoxicity) | 5 (90% or more of herbicidal effect and crop phytotoxicity) | 5 (90% or more of herbicidal effect and crop phytotoxicity) | 5 (90% or more of herbicidal effect and crop phytotoxicity) | 5 (90% or more of herbicidal effect and crop phytotoxicity)
3 | CC(C)S(=O)(=O)Cn1c(C(F)(F)F)ccc(C(=O)C2=C(O)CCCC2=O)c1=O [I-54] | 5 (90% or more of herbicidal effect and crop phytotoxicity) | 5 (90% or more of herbicidal effect and crop phytotoxicity) | 4 (70 to less than 90% of herbicidal effect and crop phytotoxicity) | 5 (90% or more of herbicidal effect and crop phytotoxicity) | 5 (90% or more of herbicidal effect and crop phytotoxicity) | 5 (90% or more of herbicidal effect and crop phytotoxicity) | 5 (90% or more of herbicidal effect and crop phytotoxicity) | 5 (90% or more of herbicidal effect and crop phytotoxicity) | 5 (90% or more of herbicidal effect and crop phytotoxicity) | 5 (90% or more of herbicidal effect and crop phytotoxicity) | 5 (90% or more of herbicidal effect and crop phytotoxicity)
4 | CC(C)(C)SCn1c(C(F)(F)F)ccc(C(=O)C2=C(O)CCCC2=O)c1=O [I-55] | 5 (90% or more of herbicidal effect and crop phytotoxicity) | 5 (90% or more of herbicidal effect and crop phytotoxicity) | 5 (90% or more of herbicidal effect and crop phytotoxicity) | 5 (90% or more of herbicidal effect and crop phytotoxicity) | 5 (90% or more of herbicidal effect and crop phytotoxicity) | 5 (90% or more of herbicidal effect and crop phytotoxicity) | 5 (90% or more of herbicidal effect and crop phytotoxicity) | 5 (90% or more of herbicidal effect and crop phytotoxicity) | 5 (90% or more of herbicidal effect and crop phytotoxicity) | 5 (90% or more of herbicidal effect and crop phytotoxicity) | 5 (90% or more of herbicidal effect and crop phytotoxicity)
5 | CC(C)(C)S(=O)(=O)Cn1c(C(F)(F)F)ccc(C(=O)C2=C(O)CCCC2=O)c1=O [I-56] | 5 (90% or more of herbicidal effect and crop phytotoxicity) | 5 (90% or more of herbicidal effect and crop phytotoxicity) | 5 (90% or more of herbicidal effect and crop phytotoxicity) | 4 (70 to less than 90% of herbicidal effect and crop phytotoxicity) | 5 (90% or more of herbicidal effect and crop phytotoxicity) | 5 (90% or more of herbicidal effect and crop phytotoxicity) | 5 (90% or more of herbicidal effect and crop phytotoxicity) | 5 (90% or more of herbicidal effect and crop phytotoxicity) | 5 (90% or more of herbicidal effect and crop phytotoxicity) | 5 (90% or more of herbicidal effect and crop phytotoxicity) | 5 (90% or more of herbicidal effect and crop phytotoxicity)
6 | O=C1CCCC(O)=C1C(=O)c1ccc(C(F)(F)F)n(CSCC2CC2)c1=O [I-57] | 5 (90% or more of herbicidal effect and crop phytotoxicity) | 5 (90% or more of herbicidal effect and crop phytotoxicity) | 5 (90% or more of herbicidal effect and crop phytotoxicity) | 5 (90% or more of herbicidal effect and crop phytotoxicity) | 5 (90% or more of herbicidal effect and crop phytotoxicity) | 5 (90% or more of herbicidal effect and crop phytotoxicity) | 5 (90% or more of herbicidal effect and crop phytotoxicity) | 5 (90% or more of herbicidal effect and crop phytotoxicity) | 5 (90% or more of herbicidal effect and crop phytotoxicity) | 5 (90% or more of herbicidal effect and crop phytotoxicity) | 5 (90% or more of herbicidal effect and crop phytotoxicity)
